Several values for one entry are separate records, joined by “and”; a condition that tells them apart may be missing. Equal entries are not always repeated.
How the values were obtained:
[1] = system: CRP; assay: CRP levels in blood, carrageneen inflammation model; assay type: in vivo, rats; settings: for CRP: 5 h after carrageneen; for CRP increase %: carrageneen control = 100
Experimental: To evaluate the intensity of the inflammation process the CRP levels were determined by standard method on analyzer ? INTEGRA 400+ ? at the end of experiment (5 hours after injection of carrageneen).

[2] = system: adjuvant arthritis induced by Freund's adjuvant; assay: Adjuvant arthritis: paw volume and ankle joint; assay type: in vivo, Wistar rats; settings: for Prevention %, paw volume Day 14 / Prevention %, paw volume Day 28: vs AdA
Excerpt: Our experiments were scheduled to test the influence of MASA on the progress of adjuvant arthritis in comparison with MD and ASA. […] Each standard cage housed 7 rats with unlimited access to drinking water and granulated standard feed. […] All efforts were made to minimize animal suffering and to reduce the number of animals used. A modified standard procedure for inducting and evaluating the progress of chronic adjuvant arthritis was used (Bellavite P, Ortolani R, Conforti A, Immunology and Homeopathy. 3. Experimental Studies on Animal Models, Advance Access Publication 2.05, 2006, 171-186). […] The solutions of test substances were prepared ex tempore. […] Test solutions were introduced to animal p.o. by catheter into the stomach. […] The effects of test substances were evaluated using the following criteria: The oedema, i.e. the volume of hind paw was measured by oncometer. The percentage of prevention (inhibition of oedema) was calculated according to formula: P(%)=(Vc−Vt)/Vc×100, where Vc—paw volume in control group Vt—paw volume in test group P—Prevention in % (inhibition of oedema).

[3] = system: serum lipid levels (C, HDL, LDL, TG); assay: Chronic hyperlipidemia model (Triton WR1339, 3 weeks); assay type: in vivo, Wistar rats; settings: MASA 150 mg/kg/d p.o.; TR 250 mg/kg 3x/week
Experimental: Male Wistar rats were used. Animals were held in climatized rooms 22±1° C. with relative humidity 60±5%, and 12/12-hour light/dark cycle with free access to water and feed. Initial weight of animals was 220-240 g. Experimental chronical (subchronical) hyperlipidemia/hypercholesterolemia was induced by TR using the method described by Levine and Saltzman (Levine S, Saltzman A, J Pharmacol Toxicol Meth 2007; 55:224-226). Animals received 250 mg/kg of TR solution via tail vein three times a week for 3 weeks. Solutions of test substances or water for Control and TR group was introduced p.o. once a day one hour before injection of TR solution or taking a blood sample according to the following scheme:
Blood for biochemical analyses was obtained after 1, 2 and 3 weeks (on the next day after the TR injection) by cardiac punction under ether narcosis. Serum was separated by centrifugation and analyzed for total C, HDL, LDL and TG levels by commercial kits. Statistics.

[4] = system: platelet aggregation; assay: Platelet aggregation in vitro, whole blood impedance aggregometry (Multiplate); assay type: cell-based, healthy donor
Experimental: Platelet aggregation was studied using whole blood impedance aggregometry on Multiplate (Multiple Platelet Function Analyzer, Dynabyte Medical, Germany) (Toth O et al, Thromb Haemost 2006; 96:781-788. […] Blood samples for in vitro experiment were collected from healthy donor B. […] In the ex vivo experiment blood was collected into plastic tubes covered with hirudin (Dynabyte Medical, Germany) from narcotized rats that were treated for 3 previous days with test substances p.o. The measurements were performed according to modified Dynabyte Medical protocol. […] After 5 min incubation and stirring at 37° C., measurements were initiated by adding of the appropriate agonist solution (sourced from Dynabyte Medical, Germany): 1) adenosine diphosphate (ADP)-ADP-Test. ADP stimulates platelet activation by the ADP receptors (P2Y 12 and other). […] 3) ADP HS test (prostaglandin E1 in combination with ADP). […] Aggregation curves were recorded for 6 min. and analyzed using Dynabyte Medical software. We calculated the following parameters of platelet aggregation: […] It is affected by the total height of the aggregation curve as well as by its slope and is best suited to express the overall platelet activity.

[5] = system: platelet aggregation; assay: Platelet aggregation ex vivo after 3 days treatment; assay type: in vivo, rats; settings: 10 mg/kg/d p.o. 3 days
Experimental: Platelet aggregation was studied using whole blood impedance aggregometry on Multiplate (Multiple Platelet Function Analyzer, Dynabyte Medical, Germany) (Toth O et al, Thromb Haemost 2006; 96:781-788. […] Blood samples for in vitro experiment were collected from healthy donor B. […] In the ex vivo experiment blood was collected into plastic tubes covered with hirudin (Dynabyte Medical, Germany) from narcotized rats that were treated for 3 previous days with test substances p.o. The measurements were performed according to modified Dynabyte Medical protocol. […] After 5 min incubation and stirring at 37° C., measurements were initiated by adding of the appropriate agonist solution (sourced from Dynabyte Medical, Germany): After the thrombosis experiment the narcotized animals who received test substances for 3 days were used for platelet aggregation test ex vivo. […] Blood samples were used for measurement between 30 min and 4 h after collection. The measurements were performed according to modified Dynabyte Medical protocol (see above under Platelet aggregation).

[6] = system: blood flow in the right ear artery; assay: Cutaneous vasodilatation caused by nicotinic acid, ear artery blood flow; assay type: in vivo, Wistar rats; settings: 45 mg/kg s.c.; maximal change to baseline
Experimental: Model. […] Blood pressure was measured in left carotid artery, ECG recorded by standard II lead. […] Blood flow, ECG and arterial pressure were registered by AD Instruments PowerLab systems and stored in computer for further processing. […] The average blood flow data for each animal were calculated taking into account the average blood pressure and compared with initial and control. […] Statistics.

## CC(=O)Oc1ccccc1C(=O)[O-].C[N+](C)(C)NCCC(=O)O [MASA, 3-(trimethylammonioamino)propanoate Acetylsalicylic Acid Addition Salt]
[1]; 150 mg/kg
  CRP: 0.19 ± 0.009^#$ mg/l
  CRP increase %: 33%
[1]; 300 mg/kg
  CRP: 0.21 ± 0.014 mg/L
  CRP increase %: 67%
[2]; 25 mg/kg daily p.o.
  Dimensions of ankle joint on Day 14: 7.0 ± 0.14 mm
  Dimensions of ankle joint on Day 28: 6.7 ± 0.15 mm
  Paw volume on Day 14: 2.20 ± 0.21 mL
  Paw volume on Day 28: 1.32 ± 0.12^#&&$ ml
  Prevention %, paw volume Day 14: 9%
  Prevention %, paw volume Day 28: 41%
[2]; 100 mg/kg daily p.o.
  Dimensions of ankle joint on Day 14: 7.0 ± 0.13 mm
  Dimensions of ankle joint on Day 28: 6.6 ± 0.16^#@$ mm
  Paw volume on Day 14: 2.07 ± 0.17^& ml
  Paw volume on Day 28: 1.22 ± 0.08^#&&&@$ ml
  Prevention %, paw volume Day 14: 15%
  Prevention %, paw volume Day 28: 45%
[2]; 200 mg/kg daily p.o.
  Dimensions of ankle joint on Day 14: 6.8 ± 0.10^#& mm
  Dimensions of ankle joint on Day 28: 6.9 ± 0.11 mm
  Paw volume on Day 14: 2.13 ± 0.11^& ml
  Paw volume on Day 28: 1.7 ± 0.09^#&@ ml
  Prevention %, paw volume Day 14: 12%
  Prevention %, paw volume Day 28: 24%
[3]
  HDL after 1 week (HDL1): 100.1 ± 9.4 mg/dL
  HDL after 2 weeks (HDL2): 113.8 ± 13.1 mg/dL
  HDL after 3 weeks (HDL3): 128.3 ± 18.5 mg/dL
  LDL after 1 week (LDL1): 263.3 ± 19.4 mg/dL
  LDL after 2 weeks (LDL2): 287.6 ± 18.5 mg/dL
  LDL after 3 weeks (LDL3): 261.9 ± 12.6 mg/dL
  TG after 1 week (TG1): 964 ± 94.9 mg/dL
  TG after 2 weeks (TG2): 1079 ± 84 mg/dL
  TG after 3 weeks (TG3): 982 ± 72.7 mg/dL
  Total C after 1 week (C1): 375.9 ± 25.8 mg/dL
  Total C after 2 weeks (C2): 406.7 ± 19.8 mg/dL
  Total C after 3 weeks (C3): 409 ± 39.4 mg/dL
[4]; AA induced, 10^−4
  AUC: 298 ± 25.3^3#&&$ AU*min and 298 ± 25.3^3aa& AU*min
  Amax: 66.1 ± 6.8^3#&&$ AU and 66.1 ± 6.8^3aa& AU
[4]; AA induced, 10^−5
  AUC: 832 ± 54.1^1 AU*min
  Amax: 148.4 ± 5.7^1 AU
[4]; ADP induced, 10^−4
  AUC: 798 ± 38.9^1 AU*min
  Amax: 140.5 ± 7.2^1 AU
[4]; ADP induced, 10^−5
  AUC: 828 ± 63.5 AU*min
  Amax: 153.5 ± 8.8 AU
[4]; PGE1 + ADP induced, 10^−4
  AUC: 533 ± 20.3^3$&&& AU*min
  Amax: 87.7 ± 4.6^3$&&& AU
[4]; PGE1 + ADP induced, 10^−5
  AUC: 595 ± 45.3^1 AU*min
  Amax: 99.3 ± 4.8^2 AU
[5]; AA induced
  AUC: 232 ± 44.1^2&a AU*min
  Amax: 48.2 ± 9.7^3&a AU
[5]; ADP induced
  AUC: 528 ± 46.5^1 AU*min
  Amax: 75.5 ± 12.8^2 AU
[5]; PGE1 + ADP induced
  AUC: 195 ± 35.3^3 AU*min
  Amax: 41.4 ± 14.8^2 AU
[6]
  Changes in blood flow, %: 8.04 ± 2.02^$ %

— patent US8889902B2, “Acetylsalicylic acid salts” (priority 2009, dated 2014)
